According to patent US10882826B2, “Quinolinone or quinazolinone comprising antibiofilm compositions, compounds and methods and uses relating thereto” (University College Cork—National University of Ireland, priority 2015, dated 2021):

What was measured:
Pseudomonus aeruginosa = test: Virulence of Pseudomonas aeruginosa (summary statement); format: cell-based; conditions: unlike HHQ and PQS
Experimental: The virulence of compounds B1, B2, C2, C3, C4, C5, C6, C8 and C11 towards P. aeruginosa was assessed using the following method:
P. aeruginosa strains were cultured as described above for 24 hr, with the addition of test compounds (10 μM). Cultures were centrifuged at 4000 rpm for 10 minutes and the cell free supernatant (5 ml) removed. Chloroform (3 ml) was added, and mixed by vortex. After centrifugation at 4000 rpm for 5 mins, the lower aqueous phase was transferred to 0.2 M HCl (2 ml). Samples were mixed by vortex and centrifuged at 4000 rpm for 5 mins to separate the phases. An aliquot of the top phase (1 ml) was removed and spectrophotmetrically analysed at OD570 nm. Phenazine production was calculated using the following formula: OD570 nm×2×17.072 and the units expressed in μg/ml. […]

[1] = test system: pqsA-lacZ promoter fusion; test: Promoter fusion based expression analysis (pqsA-lacZ, Miller units); format: cell-based, P. aeruginosa; conditions: PAO1 pqsA-pqsA-lacZ strain, 100 μM, overnight; methanol control 12287
Experimental: (§1) P. aeruginosa strains, PAO1 and pqsA mutant, containing the chromosomally inserted pqsA-lacZ promoter fusion on plasmid pUC18-mini-Tn7, were sub-cultured from glycerol stocks onto LB agar plates, supplemented with Carbenicillin (200 μg/ml) and X-gal (40 μg/ml), and incubated at 37° C. overnight. Single colonies were inoculated into LB broth (20 ml), supplemented with Carbenicillin (200 μg/ml), and incubated at 37° C., shaking at 180 rpm overnight. For subsequent experiments, the OD600 nm was recorded and a starting OD600 nm of 0.02 was inoculated into fresh LB broth, supplemented with Carbenicillin (200 μg/ml) and incubated at 37° C., shaking at 180 rpm.
Promoter fusion analyses were performed in a 96-well format. Briefly, overnight cultures of wild-type PAO1 pqsA-lacZ (pLP0996) and mutant strain PAO1 pqsA^− pqsA-LacZ were diluted to OD600 nm=0.02 in LB. Test compounds at 100 μM final concentration were added, mixed, aliquoted into 96 well plates and incubated overnight at 37° C. with shaking. The next day, OD600 nm values were recorded in a plate reader. Aliquots of cells (0.02 ml) were permeabilised [100 mM dibasic sodium phosphate (Na2HPO4), 20 mM KCl, 2 mM MgSO4, 0.8 mg/mL CTAB (hexadecyltrimethylammonium bromide), 0.4 mg/mL sodium deoxycholate, 5.4 μL/mL beta-mercaptoethanol] and added to substrate solution [60 mM Na2HPO4, 40 mM NaH2PO4, 1 mg/mL o-nitrophenyl-β-D-Galactoside (ONPG), 2.7 μL/mL β-mercaptoethanol]. The kinetics of colour development was monitored and the reactions were stopped using 1M NaCO3. OD420 nm were recorded as above. Miller units were calculated using the following equation; 1000×[OD420 nm/(OD600 nm)×0.02 ml×reaction time (mins)].
(§2) The phenazine production levels and Miller units in the PAO1 pqsA-pqsA-lacZ strain are detailed in table 5.
(§3) The virulence of compounds B2, C13 and C15 towards P. aeruginosa was assessed using an analogous method.

[2] = test system: IB3 lung epithelial cells; test: LDH release cytotoxicity, IB3-1 cells; format: cell-based; conditions: 100 μM, 16 hr, percentage of 0.1% Triton (100% cytotoxicity), MeOH 3.844
Experimental: (§4) Lactate dehydrogenase (LDH) release from IB3 lung epithelial cells was assayed as a measure of cytotoxicity using an LDH colorimetric kit (Roche) according to manufacturers' instructions. Briefly, IB3-1 cells were seeded onto 96 well plates and treated with methanol (control) and test compounds (100 μM). Following 16 hr incubation at 37° C. and 5% CO2, supernatants were removed and added to catalyst reaction mixture in a fresh plate and further incubated at 37° C. and 5% CO2 for 30 mins to allow for colour development. After this period, the plate was analysed on an ELISA plate reader at OD490 nm. Cytotoxicity was expressed as a percentage of cells treated with 0.1% (v/v) Triton (100% cytotoxicity).

[3] = test system: C. albicans strain SC5314 biofilm; test: XTT metabolic assay of C. albicans biofilm; format: cell-based, Candida albicans; conditions: for XTT result, Mean (MeOH control = 1) / Absorbance at 492 nm, Mean (XTT): C. albicans biofilm; for Absorbance at 492 nm, Mean (XTT): test compound 100 μM, 24 hr, MeOH control 0.647, untreated 0.851; for effectiveness against fungal biofilms formed by Candida albicans (in words): summary statement
Experimental: C. albicans strain SC5314 was sub-cultured from 15% (v/v) glycerol stocks at −80° C. onto Yeast Peptone Dextrose (YPD) medium [1% (w/v) yeast extract, 2% (w/v) peptone and 2% (w/v) dextrose] and incubated at 30° C. overnight.
The test compounds in desiccated form were re-suspended in Methanol to create a 10 mM stock. […]
The ability of some of the compounds detailed in example 1 to disrupt Candida albicans was tested using Confocal Scanning Laser Microscopy and an XTT Metabolic Assay. The XTT assay is a commonly used quantitative method assessing Candida biofilm mass and growth often in response to novel drug therapies.
C. albicans biofilm formation was carried out in 96 well plates by a method of the prior art. Briefly, C. albicans was inoculated into Yeast Nitrogen Base [10% (w/v)] and glucose/maltose [10% (w/v)] and incubated overnight at 30° C. Seeding densities for all subsequent experiments (N=3) were OD600=0.05. Cells were grown in Yeast Nitrogen Base supplemented with 1 M Phosphate buffer and acetyl-D-glucosamine (YNB-NP) along with appropriate volumes of test compound to provide the desired concentration. Cells were cultured in 96 well plates for 1 hr at 37° C. to facilitate yeast attachment. After this incubation, the supernatants were aspirated, the wells washed twice with YNB-NP media, and fresh media with the same concentration of test compound added to the appropriate wells. The plate was incubated for 24 hr at 37° C. The next day, the cultures were aspirated and the wells washed once with YNB-NP media.
C. albicans biofilm quantification was carried out in 96 well plates using a semi-quantitative Tetrazolium salt, 2,3-bis-(2-methoxy-4-nitro-5-sulfophenyl)-2H tetrazolium-5-carboxanilide inner salt (XTT) reduction assay (Hawser, Tunney et al, Antimicrob Agents Chemother. 2004 May; 48(5):1879-81). XTT (0.01 g) was dissolved in sterile water (20 ml) and filter sterilized. 10 μl of Menadione dissolved in Acetone was added to the XTT solution, just before use. The XTT-Menadione Solution (100 μl) was added to each well. The plate was incubated in the dark at 37° C. for up to 2 hr to allow for colour development. The OD492 nm was recorded for each well. Experiments were repeated at least three times, with at least eight technical replicates.
Experiments were first carried out using the test compound at concentration of 100 μM.

[4] = test system: P. aeruginosa PAO1 pqsA-pqsA-lacZ strain; test: Phenazine extraction (phenazine production); format: cell-based; conditions: PAO1 pqsA-pqsA-lacZ strain, test compounds 10 μM, 24 hr; methanol control 0.080
Experimental: as §1
P. aeruginosa strains were cultured as described above for 24 hr, with the addition of test compounds (10 μM). Cultures were centrifuged at 4000 rpm for 10 minutes and the cell free supernatant (5 ml) removed. Chloroform (3 ml) was added, and mixed by vortex. After centrifugation at 4000 rpm for 5 mins, the lower aqueous phase was transferred to 0.2 M HCl (2 ml). Samples were mixed by vortex and centrifuged at 4000 rpm for 5 mins to separate the phases. An aliquot of the top phase (1 ml) was removed and spectrophotmetrically analysed at OD570 nm. Phenazine production was calculated using the following formula: OD570 nm×2×17.072 and the units expressed in μg/ml.
as §2, §3

DU145 = test: LDH release cytotoxicity, DU145; format: cell-based; conditions: DU145 cell line; percentage of 0.1% Triton
Experimental: as §4, with “cytotoxicity). The results are detailed in table 3:” for “cytotoxicity).”
(§5) The above experiments were repeated, testing some compounds against further cell lines (A549, DU145 and HeLa).

mammalian cells = test: Cytotoxicity towards mammalian cells (summary statement); format: cell-based
Experimental: as §4, with “cytotoxicity). The results are detailed in table 3:” for “cytotoxicity).”
as §5

[5] = test system: A. fumigatus CFBRC1 biofilm; test: A. fumigatus biofilm assay, clinical source CFBRC1; format: cell-based, Aspergillus fumigatus; conditions: biofilm from clinical source CFBRC1
Experimental: (§6) A. fumigatus Af293 was grown on SDA in 100 ml cell culture flasks at 37° C. for 3-4 days. Conidia were harvested by flooding the surface of the agar plates with 5 ml PBS (Oxoid) containing 0.025% (v/v) Tween 20 and gently moving the liquid over the surface of the fungal lawn. The conidial suspension was transferred into a 25 ml sterile container and conidia were counted using a Neubauer haemocytometer and light microscope. Conidia were adjusted to the required concentration in RPMI 1640 (Sigma) buffered to pH 7.0 with 0.165 M MOPS immediately prior to biofilm formation analysis.
(§7) To assess biofilm formation, counted A. fumigatus spores (1×10^5) in MOPS buffered RPMI 1640 were inoculated into 24- and 96-well plates and grown overnight in the presence of 100 μM HHQ, PQS and the test compounds. After 24 hrs, the media was removed and the biofilm washed twice with distilled water after which 0.1% crystal violet (CV) was added to each well and allowed to stand for 1 hr at room temperature. The crystal violet was removed and all wells washed in a water bath by inversion. Ethanol was added to each well to solubilise biofilms after which samples were read on a spectrophotometer at Abs595 nm.
(§8) The above experiments were carried out using biofilms grown from laboratory sources of A. fumigatus. The experiments were repeated to test some compounds against biofilms grown from three different clinical sources of A. fumigatus (CFBRC1, CFBRC2 and CFBRC3. The results are shown in table 8: […]

[6] = test system: A. fumigatus CFBRC3 biofilm; test: A. fumigatus biofilm assay, clinical source CFBRC3; format: cell-based, Aspergillus fumigatus; conditions: biofilm from clinical source CFBRC3
Experimental: as §6, §7, §8

[7] = test system: A. fumigatus Af293 biofilm; test: A. fumigatus biofilm assay (crystal violet); format: cell-based, Aspergillus fumigatus
Experimental: A. fumigatus Af293 was routinely grown on Sabouraud dextrose agar (SDA) in 100 ml cell culture flasks at 37° C. for 3-4 days until a lawn of fungal growth was observed.
as §6, §7

[8] = test system: A. fumigatus CFBRC2 biofilm; test: A. fumigatus biofilm assay, clinical source CFBRC2; format: cell-based, Aspergillus fumigatus; conditions: biofilm from clinical source CFBRC2
Experimental: as §6, §7, §8

| Compound | effect on virulence of Pseudomonus aeruginosa (in words) (Pseudomonus aeruginosa) | Miller Units, Mean [1] [Miller Units] | % Cytotoxicity, Mean (LDH release) [2] [%] | XTT result, Mean (MeOH control = 1) ([3]; 10 μM) | XTT result, Mean (MeOH control = 1) ([3]; 50 μM) | XTT result, Mean (MeOH control = 1) ([3]; 100 μM) | Absorbance at 492 nm, Mean (XTT) [3] | effectiveness against fungal biofilms formed by Candida albicans (in words) [3] | Phenazine, Mean [4] [µg/mL] | Cytotoxicity, Mean (LDH release) (DU145) [%] | cytotoxicity towards mammalian cells (in words) (mammalian cells) | Relative absorbance compared to MeOH (=1), Mean [5] | Relative absorbance compared to MeOH (=1), Mean [6] | Relative absorbance at 595 nm compared to methanol control, Mean ([7]; A. fumigatus Af293 biofilm, 100 μM, 24 hrs, crystal violet) | effectiveness against fungal biofilms formed by Aspergillus fumigatus (in words) ([7]; summary statement) | Relative absorbance compared to MeOH (=1), Mean [8] |
| --- | --- | --- | --- | --- | --- | --- | --- | --- | --- | --- | --- | --- | --- | --- | --- | --- |
| CCCCCCCc1cc(=O)c2cc(C)ccc2[nH]1 [Compound C3] | do not increase the virulence | 18350 | 23.77 | 0.71 | 0.57 | 0.51 | 0.307 | effective | 0.774 | 32.42 |  |  |  |  |  |  |
| CCCCCCCn1c(=O)cc(O)c2ccccc21 [Compound C6] | do not increase the virulence | 16678 | 19.70 |  |  |  | 0.336 | effective | 0.011 |  | reduced cytotoxicity |  |  |  |  |  |
| CCCCCCCCCc1cc(=O)c2ccccc2[nH]1 [Compound C10] | do not increase the virulence |  |  | 0.58 | 0.50 | 0.53 | 0.419 |  |  | 31.7 | reduced cytotoxicity | 0.772 | 0.670 | 0.24 | effective | 0.567 |
